# Measured values taken from article PMC10634366 (Microbiology, 2023).
# Key:
# Asuc_0142 (DcuAAs) [1] = target: T1, Asuc_0142 (DcuAAs) (Actinobacillus succinogenes, UniProt A6VKM5); experiment: inhibition of […] min […]fumarate uptake, E. coli IMW529 cells; assay type: cell-based; conditions: read-out: % inhibition at 1 mM
# T1 construct: full-length gene from 130Z genomic DNA in pBAD30-derived pMB61 (pMB147), expressed in E. coli IMW529 lacking DcuA, DcuB, DcuC, TtdT and CitT
# Asuc_0142 (DcuAAs) [2] = target: T1, Asuc_0142 (DcuAAs); experiment: as above; assay type: cell-based; conditions: 100 µM [14C]fumarate; anaerobic, pH 7, 37 °C
SMILES,inhibition at 1000 µM (Asuc_0142 (DcuAAs) [1]) [%],% inhibition at 1 mM (Asuc_0142 (DcuAAs) [2])
N[C@@H](CC(=O)O)C(=O)O [L-aspartate],95,
O=C(O)C[C@H](O)C(=O)O [L-malate],,the inhibition by succinate and L-malate was only moderate
O=C(O)/C=C/C(=O)O [fumarate],82,
O=C(O)CCC(=O)O [succinate],,the inhibition by succinate and L-malate was only moderate
